Measurements: publication PMC8910920 (International Journal of Molecular Sciences, 2022)

Columns and labels:
[1] = system: voltage-activated Na+ and K+ currents; assay: Whole-cell voltage-clamp, voltage-activated currents in rat DRG neurons; format: cell-based; details: 1 µM, depolarization pulse to +10 mV
Experimental: (§1) We also investigated the effect of RGM8-51 on native TRPM8 channels from rat DRG neurons. Whole-cell patch-clamp recordings from small size DRG neurons evidenced menthol (100 µM)-activated inward currents at a holding voltage of −80 mV (Figure 3A). As expected from results obtained in rTRPM8-expressing HEK293 cells, RGM8-51 (1 µM) inhibited menthol-activated currents.
Voltage-activated Na^+ and K^+ currents and TRPM8-mediated currents were recorded in DRG neurons isolated from 6-8 weeks old Sprague-Dawley rats, as previously described. Rats were sacrificed by cervical dislocation followed by decapitation and lumbar segments of the spinal column were removed and placed in a cold Ca^2+, Mg^2+-free Hank’s solution (Sigma-Aldrich, Madrid, Spain). The bone surrounding the spinal cord was removed and the right L4, L5 and L6 DRG were exposed and pulled out. […]
(§2) Data were sampled at 10 kHz (EPC10 amplifier with PatchMaster 2.53 software, HEKA Electronics, Lambrecht, Germany) and low-pass filtered at 3 kHz for analysis (PatchMaster 2.53 and GraphPad Prism 6.0, Graphpad Software, San Diego, CA, USA). […] Cell capacitance was measured and used to estimate the current density (J, pA/pF).

[2] = target: T1, native TRPM8 channels from rat DRG neurons (Rattus norvegicus, UniProt Q8R455); assay: Whole-cell voltage-clamp, menthol-activated currents in rat DRG neurons; format: cell-based
T1 construct: native TRPM8 channels from rat DRG neurons; endogenous in cells; host or cells: primary DRG neurons (L4-L6) from 6-8 weeks old Sprague-Dawley rats
Experimental: as §1
Voltage-activated Na^+ and K^+ currents and TRPM8-mediated currents were recorded in DRG neurons isolated from 6-8 weeks old Sprague-Dawley rats, as previously described. Rats were sacrificed by cervical dislocation followed by decapitation and lumbar segments of the spinal column were removed and placed in a cold Ca^2+, Mg^2+-free Hank’s solution (Sigma-Aldrich, Madrid, Spain). The bone surrounding the spinal cord was removed and the right L4, L5 and L6 DRG were exposed and pulled out. After removing the roots, DRG were chopped in half and incubated for 30 min at 37°C in Dulbecco’s modified Eagle’s Medium-low glucose (DMEM; Sigma-Aldrich) containing 5 mg/mL collagenase XI (Sigma-Aldrich, Madrid, Spain), 100 U/mL penicillin (Sigma-Aldrich), and 0.1 mg/mL streptomycin (Sigma-Aldrich). Then, the cell suspension was washed with DMEM by centrifugation (300 G, 5 min at 4 °C), filtered through a 100 µm mesh to eliminate cell clumps and washed again by centrifugation. […]
as §2
Data analysis: For the whole-cell patch-clamp experiments, results are expressed as the percentage of remaining activation of the TRPM8 channel. This is calculated by normalizing the ratio (p2/p1) of testing conditions to the ratio (p2/p1) of the control condition. […]

T1 sequence (Q8R455 whole entry): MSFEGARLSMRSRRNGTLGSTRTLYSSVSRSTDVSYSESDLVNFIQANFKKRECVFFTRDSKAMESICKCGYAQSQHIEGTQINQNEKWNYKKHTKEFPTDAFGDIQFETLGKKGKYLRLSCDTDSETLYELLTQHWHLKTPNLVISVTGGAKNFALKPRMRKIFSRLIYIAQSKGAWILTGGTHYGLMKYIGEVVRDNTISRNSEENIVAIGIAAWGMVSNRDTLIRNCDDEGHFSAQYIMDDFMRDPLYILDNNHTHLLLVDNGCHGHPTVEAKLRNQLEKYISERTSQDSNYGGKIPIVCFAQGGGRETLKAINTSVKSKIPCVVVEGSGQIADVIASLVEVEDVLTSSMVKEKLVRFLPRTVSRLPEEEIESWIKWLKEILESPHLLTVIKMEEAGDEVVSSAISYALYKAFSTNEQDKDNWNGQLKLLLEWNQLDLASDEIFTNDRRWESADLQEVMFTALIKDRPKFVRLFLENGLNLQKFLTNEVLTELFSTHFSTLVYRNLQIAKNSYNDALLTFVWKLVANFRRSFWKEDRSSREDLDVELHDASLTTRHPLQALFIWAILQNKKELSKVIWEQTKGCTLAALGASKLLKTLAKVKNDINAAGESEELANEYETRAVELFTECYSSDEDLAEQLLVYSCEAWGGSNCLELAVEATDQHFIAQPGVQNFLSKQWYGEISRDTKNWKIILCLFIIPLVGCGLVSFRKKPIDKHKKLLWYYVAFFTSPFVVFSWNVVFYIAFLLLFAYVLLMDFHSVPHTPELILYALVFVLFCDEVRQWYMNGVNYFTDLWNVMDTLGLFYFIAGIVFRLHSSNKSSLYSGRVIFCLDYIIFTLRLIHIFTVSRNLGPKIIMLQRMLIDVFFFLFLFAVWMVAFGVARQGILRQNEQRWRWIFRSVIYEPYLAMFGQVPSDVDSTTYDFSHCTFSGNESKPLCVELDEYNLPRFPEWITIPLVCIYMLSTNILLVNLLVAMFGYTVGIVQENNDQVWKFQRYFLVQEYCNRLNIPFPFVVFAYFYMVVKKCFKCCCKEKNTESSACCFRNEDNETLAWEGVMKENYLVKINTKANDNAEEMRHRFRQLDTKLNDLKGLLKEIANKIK

## C[C@@H]1C(=O)N(C[C@H](Cc2ccccc2)N(Cc2ccccc2)Cc2ccccc2)[C@]1(Cc1ccccc1)C(=O)OC(C)(C)C [RGM8-51, 4(S)-Benzyl-3S-methyl-4-(tert-butoxy)carbonyl-1-[(2′S-dibenzylamino-3′-phenyl)prop-1′-yl]-2-oxoazetidine]
[1]
  effect on voltage-activated Na+ and K+ currents: had no effect
[2]; 1 µM, menthol 100 µM, holding −80 mV
  peak current density of menthol-activated current after compound: 0.51 ± 0.09 pA/pF
[2]; DRG neuron, 1 µM, menthol 100 µM, holding −80 mV, n = 8 cells, read-out: Mean peak current inhibition of menthol-activated currents
  inhibition at 1 µM: 65 ± 4.67%
[2]; compound on its own
  effect on baseline current at -80 mV: did not modify on its own the baseline current
